# Measurements as given in patent US20260273020A1, “OBESTATIN FOR USE AS ANTINEOPLASTIC AGENT IN THE TREATMENT OF PANCREATIC CANCER” (SERVIZO GALEGO DE SAÚDE, priority 2023, published 2026).
# Assays:
# KPC FC1242 cells = test: Proliferation assay, cell counting under chronic obestatin treatment; assay type: cell-based, mouse
# Protocol: The murine pancreatic cancer cells KPC FC1242 were isolated from PDAC tumour tissues obtained from LSL-KrasG12D; LSL-Trp53R172H; Pdx1-Cre mice of a pure C57BL/6 background. This cell line was kindly donated by David A. Tuveson (Cold Spring Harbor Laboratory, Cold Spring Harbor, New York, US). KPC FC1242 were maintained in DMEN (Lonza, Basel, CH), and supplemented with 10% fetal bovine serum (FBS; Hyclone, GE Healthcare Life Sciences, South Logan, UT, US), 4.5 g/L glucose, 200 mg/L sodium pyruvate, 584 mg/L L-glutamine and 1% penicillin/streptomycin (Sigma-Aldrich, St. Louis, MO, US) and incubated in an atmosphere containing 5% CO2 at 37° C. These cells were periodically tested and resulted negative for mycoplasma contamination.
# For the analysis of proliferation the cells were seeded on 12-well plates at an amount of 50,000 cells per well and maintained for 24 h in culture media (see above) to allow attachment. The medium was completely removed and replaced with serum-free media for additional 24 h. […] Twenty-four h after the last treatment, the cells were trypsinized and manually counted with a Neubauer camera.
# The total cells were calculated using the following equations counting 10 squares: […]
# [1] = test system: p62, LC3, cleaved caspase 3, Bax, HIF1a; test: Immunoblot of pancreatic tumors: apoptosis, autophagy, HIF1a; assay type: in vivo, C57BL/6J mice; details: obestatin 500 nmol/Kg/72 h
# Protocol: FIG. 5. Immunoblot analysis of p62, LC3, cleaved caspase 3, Bax, and HIF1a in the pancreatic tumors of C57BL/6J mice (n=4) orthotopically injected with KPC FC1242 cells and treated with vehicle [NaCl, 0.9% (w/v)] or obestatin (500 nmol/Kg/72 h). Results are expressed as fold of control of the non-treated injected mice [control; mean±SE (*, P<0.05)].
# (§1) Mice were weighed at set times over the 15-day period. The sterilized surgical material was used for the tissue extraction. Pancreases and muscles were carefully removed from each animal minimizing contamination with surrounding tissue or mouse hair. Pancreases and muscles were weighed. The skeletal muscles selected were: tibialis anterior, TA; extensor digitorum longus, EDL; gastrocnemius, GAST; soleus, SOL; and diaphragm, DIA. Pancreases were also measured with a scale (cm) and pictures were taken. • Histology—Pancreas samples for histology were fixed in 4% paraformaldehyde in PBS at room temperature overnight. After fixation, samples were dehydrated and embedded in paraffin blocks. For this study, 3-micron sections were cut from each block and placed on pre-cleaned slides (Thermo Fisher Scientific, Waltham, MA, USA). The sectioned tissue slides were covered with a thin layer of paraffin, stoked at 60° C. for 1 hour and stored protected from light at room temperature to preserve the antigenicity of sections. • Immunoblot—For immunoblot analysis, pancreases were immediately frozen in dry ice and stored at −80° C. until use. Tissues were homogenized using a TissueLyser II tissue homogenizer (Qiagen, Hilden, DE), in 200 μL of RIPA lysis buffer at 30 Hz for 3 min. The lysates were clarified by centrifugation (18,000×g, 15 min, 4° C.), and the protein concentration was quantified by the Quantipro™ BCA assay kit (Sigma-Aldrich, St. Louis, MO, US).
# Tissues were disrupted and homogenized in ice-cold lysis buffer [50 mM Tris-HCl pH 7.2, 150 mM NaCl, 1 mM EDTA, 1% (v/v) NP-40, 0.25% (w/v) Na-deoxycholate, protease inhibitor cocktail (PIC; 1:100; Sigma Chemical Co., St. Luis, MO, US), phosphatase inhibitor cocktail (PHIC; 1:100; Sigma Chemical Co., St. Luis, MO, US)] with 5 mm stainless steel beads using a TissueLyser (Qiagen, Hilden, DE) at 30 Hz for 3 min. The soluble cell lysates were pre-cleared by centrifuging at 14,000 rpm for 15 min. Supernatants were recovered and the protein was quantified with BCA Protein Assay Kit (Thermo Fisher Scientific, Rockford, IL, US). The same amount of protein for each sample was separated on 7-15% SDS/polyacrylamide gels and transferred to nitrocellulose membranes (Bio-Rad, Hercules, CA, US). The blots were incubated with 5% bovine serum albumin (BSA) in a Tris buffer solution (TBS) containing Tween-20 [TBST; 20 mM Tris-HCl (pH 8.0), 150 mM NaCl, 0.1% (v/v) Tween-20, solution used for all incubation and washing steps] for 1 h. The blots were then incubated with the corresponding primary antibodies and subsequently were incubated with the corresponding peroxidase-conjugated IgG antibody (Table 1). After washing, the signals were visualized using an ECL plus Western Blotting Detection System (Pierce ECL Western Blotting Substrate; Thermo Fisher Scientific, Pierce, Rockford, IL, US). The image processing was performed using the NIH Image Software ImageJ 1.53o (National Institutes of Health, Bethesda, MD, US).
# [2] = Pancreatic cancer associated cachexia: skeletal muscle weight, food intake; assay type: in vivo, C57BL/6J mice; details: tumour-bearing mice
# Protocol: FIG. 9. Analysis of obestatin action on skeletal muscle cachexia of C57BL/6J mice (n=4) orthotopically injected with KPC FC1242 cells and treated with vehicle [NaCl, 0.9% (w/v)] or obestatin (500 nmol/Kg/72 h). Tibialis anterior (TA), gastrocnemius (GA), soleus (SOL), extensor digitorum longus (EDL) and diaphragm (DIA) muscles were collected and weighted at day 12 after tumour injection. Results are expressed as the percentage of the weight recovery of the muscle of obestatin-treated mice related to vehicle treated mice (mean±SE).
# In vivo experiments were carried out in C57BL/6 mice, obtained from the Central Animal Facility of the University of Santiago de Compostela. Male C57BL/6 mice, weighing 25 g on arrival, were housed four per cage at a constant temperature of 22±2° C. and at a 12 h light/dark cycle. The mice were kept for 5 days for acclimation, with free access to water, and a standard mice chow with a composition of 5.5% fat, 23% protein and 70% carbohydrate (SAFE-Panlab, Spain).
# The mice were assigned to the different groups (n=4/group) and treated for five days with: 1) healthy control, 2) tumour+vehicle [NaCl, 0.9% (w/v)], and 3) tumour+obestatin (500 nmol/Kg/72 h). Mice without tumoral cells treatment were utilized as healthy controls.
# as §1
substance,measurement,setting,value
obestatin,effect on FBS-mediated proliferation,KPC FC1242 cells; 100 nM obestatin+10% FBS each 24 h for 72 h,significant inhibitory effect
same,proliferation (number of cells),"KPC FC1242 cells; mouse obestatin (SEQ ID NO: 4) 100 nM each 24 h for 72 h, serum-free",does not activate the proliferation
same,increased expression of HIF1a,[1]; compared to control or vehicle-treated animals,106.6±17.8%
same,diminution in LC3-I,[1]; pancreatic tumors,9.2±7.5%
same,increase in cleaved caspase 3,[1]; pancreatic tumors,264.6±57.7%
same,increase in levels of proapoptotic Bax,[1]; pancreatic tumors,141.6±28.4%
same,reduction in LC3-II levels,[1]; pancreatic tumors,21.8±7.3%
same,upregulation in p62,[1]; pancreatic tumors,75.7±20.8%
same,"effect on skeletal muscle weight loss, diaphragm (DIA)",[2]; obestatin 500 nmol/Kg/72 h,No effect
same,"reduction of skeletal muscle weight loss (weight recovery vs vehicle treated mice), extensor digitorum longus (EDL)",[2]; obestatin 500 nmol/Kg/72 h,62.2±8.1%
same,"reduction of skeletal muscle weight loss (weight recovery vs vehicle treated mice), gastrocnemius (GAS)",[2]; obestatin 500 nmol/Kg/72 h,10.6±3.2%
same,"reduction of skeletal muscle weight loss (weight recovery vs vehicle treated mice), soleus (SOL)",[2]; obestatin 500 nmol/Kg/72 h,33.0±7.3%
same,"reduction of skeletal muscle weight loss (weight recovery vs vehicle treated mice), tibialis anterior (TA)",[2]; obestatin 500 nmol/Kg/72 h,30.8±6.1%
same,food intake,[2]; obestatin treatment,maintaining food intake
